Results taken from paper PMC3131501 (Journal of molecular biology, 2011).

Tests used:
wild type (wt) BA2930 = wild type (wt) BA2930 (Bacillus anthracis, UniProt A0A3P1UCA6); format: binding
BA2930 = format: biochemical, Bacillus anthracis str. Ames; conditions: pH 7.5

Sequence of wild type (wt) BA2930 (A0A3P1UCA6 1-265): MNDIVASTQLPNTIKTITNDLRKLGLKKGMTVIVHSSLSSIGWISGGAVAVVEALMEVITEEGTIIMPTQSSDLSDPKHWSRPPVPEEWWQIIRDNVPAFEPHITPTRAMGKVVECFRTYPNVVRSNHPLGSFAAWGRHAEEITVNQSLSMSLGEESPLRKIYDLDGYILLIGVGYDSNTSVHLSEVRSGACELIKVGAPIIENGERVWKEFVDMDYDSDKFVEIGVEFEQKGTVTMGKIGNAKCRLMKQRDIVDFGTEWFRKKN

Row | Compound | N (stoichiometry) (wild type (wt) BA2930) | ΔH (wild type (wt) BA2930) | −TΔS (wild type (wt) BA2930) | Kd (wild type (wt) BA2930; pH 7.5) | chemical modification by the enzyme (TLC) (BA2930)
1 | CC(=O)SCCNC(=O)CCNC(=O)[C@H](O)C(C)(C)COP(=O)(O)OP(=O)(O)OC[C@H]1O[C@@H](n2cnc3c(N)ncnc32)[C@H](O)[C@@H]1OP(=O)(O)O [AcCoA, Acetyl Coenzyme A] | 1.140±0.013 | -21.71 ± 0.46 kcal/mol | -15.61 kcal/mol | 33.4 ± 2.53 µM | 
2 | NCC[C@H](O)C(=O)N[C@@H]1C[C@H](N)[C@@H](O[C@H]2O[C@H](CN)[C@@H](O)[C@H](O)[C@H]2O)[C@H](O)[C@H]1O[C@H]1O[C@H](CO)[C@@H](O)[C@H](N)[C@H]1O [Amikacin] |  |  |  |  | modified by the enzyme
3 | CC(C)(COP(=O)(O)OP(=O)(O)OC[C@H]1O[C@@H](n2cnc3c(N)ncnc32)[C@H](O)[C@@H]1OP(=O)(O)O)[C@@H](O)C(=O)NCCC(=O)NCCS [CoA, Coenzyme A] | 1.000±0.031 | -12.47 ± 0.53 kcal/mol | -5.36 kcal/mol |  | 
4 | NC[C@H]1O[C@H](O[C@H]2[C@H](O)[C@@H](O[C@H]3O[C@H](CO)[C@@H](O)[C@H](N)[C@H]3O)[C@H](N)C[C@@H]2N)[C@H](O)[C@@H](O)[C@@H]1O [kanamycin] |  |  |  |  | modified by the enzyme
5 | NC[C@H]1O[C@H](O[C@H]2[C@H](O)[C@@H](O[C@H]3O[C@H](CO)[C@@H](O)[C@H](N)[C@H]3O)[C@H](N)C[C@@H]2N)[C@H](N)C[C@@H]1O [tobramycin] |  |  |  |  | modified by the enzyme
